Data: US9926377B2, “Anti-GPC3 antibodies and immunoconjugates” (GENENTECH, INC., priority 2014, dated 2018)
Where two headings read alike, the source gives them in different places.

How the values were obtained:
Assay type in all cases: cell-based
Hep3B.2.1-7 = assay: Cell line sensitivity (proliferation, CellTiter-GloII), Hep3B.2.1-7; details: 120 h
Protocol: (§1) Various GPC3-expressing cell lines were tested for sensitivity to free nemorubicin derivative, PNU-159682, which has the structure:
(§2) [drawing 32] as follows. Proliferation in the presence of PNU-159682 or SG-2057 were assessed using cells plated at 1000 cells per well in 50 μl of normal growth medium in 96-well clear-bottom plates (PerkinElmer Life Sciences). Twenty-four hours later, an additional 50 μl of culture medium with serial dilutions of the drug was added to triplicate wells. Three or 5 days later, cell numbers were determined using CellTiter-GloII (Promega Corp.) and with an EnVision 2101 multilabel reader (PerkinElmer).

HepG2 = assay: Cell line sensitivity (proliferation, CellTiter-GloII), HepG2; details: Homo sapiens
Protocol: as §1, §2

JHH5 = assay: Cell line sensitivity (proliferation, CellTiter-GloII), JHH5; details: 120 h
Protocol: as §1, §2

293_GPC3 = assay: Cell line sensitivity (proliferation, CellTiter-GloII), 293_GPC3; details: 120 h
Protocol: as §1, §2

PC3 = assay: Cell line sensitivity (proliferation, CellTiter-GloII), PC3; details: Homo sapiens, PC-3, 120 h
Protocol: as §1, §2

JHH7 = assay: Cell line sensitivity (proliferation, CellTiter-GloII), JHH7
Protocol: as §1, §2

293S = assay: Cell line sensitivity (proliferation, CellTiter-GloII), 293S; details: 120 h
Protocol: as §1, §2

Huh7 = assay: Cell line sensitivity (proliferation, CellTiter-GloII), Huh7; details: Homo sapiens, Huh-7, 120 h
Protocol: as §1, §2

| SMILES | EC50 (Hep3B.2.1-7; Hep3B.2.1-7, free drug, cell numbers three or 5 days after drug addition, read-out: EC50) [pM] | EC50 (HepG2; 120 h, HepG2, free drug, cell numbers three or 5 days after drug addition, read-out: EC50) [pM] | EC50 (JHH5; JHH5, free drug, cell numbers three or 5 days after drug addition, read-out: EC50) [pM] | EC50 (293_GPC3; 293_GPC3, free drug, cell numbers three or 5 days after drug addition, read-out: EC50) [pM] | EC50 (PC3; PC3, free drug, cell numbers three or 5 days after drug addition, read-out: EC50) [pM] | EC50 (JHH7; 120 h, JHH7, free drug, cell numbers three or 5 days after drug addition, read-out: EC50) [pM] | EC50 (293S; 293S, free drug, cell numbers three or 5 days after drug addition, read-out: EC50) [pM] | EC50 (Huh7; Huh7, free drug, cell numbers three or 5 days after drug addition, read-out: EC50) [pM] | EC50 (Hep3B.2.1-7) [pM] | EC50 (HepG2; HepG2, 120 h) [pM] | EC50 (JHH5) [pM] | EC50 (293_GPC3) [pM] | EC50 (PC3) [pM] | EC50 (JHH7; JHH7, 120 h) [pM] | EC50 (293S) [pM] | EC50 (Huh7) [pM] |
| --- | --- | --- | --- | --- | --- | --- | --- | --- | --- | --- | --- | --- | --- | --- | --- | --- |
| COc1cccc2c1C(=O)c1c(O)c3c(c(O)c1C2=O)C[C@@](O)(C(=O)CO)C[C@@H]3O[C@H]1C[C@H]2[C@H](O[C@@H]3[C@@H](OC)OCCN32)[C@H](C)O1 [PNU-159682] | 42 | 29 | 31 | 19 | 51 | 38 | 22 | 29 |  |  |  |  |  |  |  |  |
| C=C1C[C@H]2C=Nc3cc(OCCCCCOc4cc5c(cc4OC)C(=O)N4CC(=C)C[C@H]4C=N5)c(OC)cc3C(=O)N2C1 [SG-2057] |  |  |  |  |  |  |  |  | 474 | 29 | 105 | 34 | 122 | 135 | 56 | 147 |
